Laboratory results from ChEMBL document CHEMBL4800729 (2021).

Legend:
[1] = target: MAP kinase-activated protein kinase 2 (Homo sapiens) (UniProt P49137); assay: MAPKAP-K2(h) Millipore kinase panel; conditions: Compound concentration 1.0 uM
[2] = target: Serine/threonine-protein kinase DCLK3 (Homo sapiens) (UniProt Q9C098); assay: DCAMKL3(h) Millipore kinase panel; conditions: Compound concentration 1.0 uM
[3] = target: Vasopressin V1a receptor (Homo sapiens) (UniProt P37288); conditions: Compound concentration 10.0 uM
[4] = target: Activin receptor type-1B (Homo sapiens) (UniProt P36896); assay: Alk4(h) Millipore kinase panel; conditions: Compound concentration 1.0 uM
[5] = target: Ephrin type-B receptor 2 (Homo sapiens) (UniProt P29323); assay: EphB2(h) Millipore kinase panel; conditions: Compound concentration 1.0 uM
[6] = target: Serine/threonine-protein kinase 3 (Homo sapiens) (UniProt Q13188); assay: MST2(h) Millipore kinase panel; conditions: Compound concentration 1.0 uM
[7] = target: D(2) dopamine receptor (Homo sapiens) (UniProt P14416); conditions: Compound concentration 10.0 uM
[8] = target: Mitogen-activated protein kinase kinase kinase 3 (Homo sapiens) (UniProt Q99759); assay: MEKK3(h) Millipore kinase panel; conditions: Compound concentration 1.0 uM
[9] = target: Calcium/calmodulin-dependent protein kinase type 1 (Homo sapiens) (UniProt Q14012); assay: CaMKI(h) Millipore kinase panel; conditions: Compound concentration 1.0 uM
[10] = target: cGMP-dependent protein kinase 1 (Homo sapiens) (UniProt Q13976); assay: PKG1beta(h) Millipore kinase panel; conditions: Compound concentration 1.0 uM
[11] = target: GABA-A receptor; anion channel (Rattus norvegicus) (UniProt O09028+P15431+P18506+P18508+P19969+P20236+P23574+P23576+P28471+P28473+P30191+P62813+P63079+P63138+Q91ZM7+Q9ES14); conditions: Compound concentration 10.0 uM
[12] = target: Tau-tubulin kinase 2 (Homo sapiens) (UniProt Q6IQ55); assay: TTBK2(h) Millipore kinase panel; conditions: Compound concentration 1.0 uM
[13] = target: Ephrin type-A receptor 8 (Homo sapiens) (UniProt P29322); assay: EphA8(h) Millipore kinase panel; conditions: Compound concentration 1.0 uM
[14] = target: Phosphatidylinositol 3-kinase C2 domain-containing subunit gamma (Homo sapiens) (UniProt O75747); assay: PI3KC2g(h) Millipore kinase panel; conditions: Compound concentration 1.0 uM
[15] = target: Thromboxane-A synthase (Homo sapiens) (UniProt P24557); assay: Inhibition of Thromboxane Synthase at compound concentration of 10.0 uM in the Eurofins-Panlabs enzyme assay (Eurofins_assay_194020); design: substrate with concentration; conditions: Compound concentration 10.0 uM
[16] = target: Phosphatidylinositol 4,5-bisphosphate 3-kinase catalytic subunit gamma isoform (Homo sapiens) (UniProt P48736); assay: PI3 Kinase (p120g)(h) Millipore kinase panel; conditions: Compound concentration 1.0 uM
[17] = target: Platelet-derived growth factor receptor beta (Homo sapiens) (UniProt P09619); assay: PDGFRbeta(h) Millipore kinase panel; conditions: Compound concentration 1.0 uM
[18] = target: T1, Muscarinic acetylcholine receptor M1 (Homo sapiens) (UniProt P11229); conditions: Compound concentration 10.0 uM
T1 sequence (whole entry): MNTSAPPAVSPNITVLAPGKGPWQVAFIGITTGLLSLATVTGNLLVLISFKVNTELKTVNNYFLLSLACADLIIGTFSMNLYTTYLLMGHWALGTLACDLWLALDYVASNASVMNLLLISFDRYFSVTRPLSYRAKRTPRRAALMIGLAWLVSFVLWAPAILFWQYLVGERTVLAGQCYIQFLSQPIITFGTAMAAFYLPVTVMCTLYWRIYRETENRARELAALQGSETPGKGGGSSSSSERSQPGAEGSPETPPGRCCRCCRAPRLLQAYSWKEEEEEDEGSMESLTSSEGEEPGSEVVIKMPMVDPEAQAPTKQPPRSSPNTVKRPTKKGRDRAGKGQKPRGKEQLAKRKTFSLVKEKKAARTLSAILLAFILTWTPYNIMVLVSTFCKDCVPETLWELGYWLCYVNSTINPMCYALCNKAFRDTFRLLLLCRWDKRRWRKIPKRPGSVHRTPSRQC

[19] = target: Testis-specific serine/threonine-protein kinase 1 (Homo sapiens) (UniProt Q9BXA7); assay: TSSK1(h) Millipore kinase panel; conditions: Compound concentration 1.0 uM
[20] = target: Sodium-dependent serotonin transporter (Homo sapiens) (UniProt P31645); conditions: Compound concentration 10.0 uM
[21] = target: Vascular endothelial growth factor receptor 2 (Homo sapiens) (UniProt P35968); assay: KDR(h) Millipore kinase panel; conditions: Compound concentration 1.0 uM
[22] = target: Calcium/calmodulin-dependent protein kinase type 1D (Homo sapiens) (UniProt Q8IU85); assay: CaMKIdelta(h) Millipore kinase panel; conditions: Compound concentration 1.0 uM
[23] = target: Serine/threonine-protein kinase WNK4 (Homo sapiens) (UniProt Q96J92); assay: WNK4(h) Millipore kinase panel; conditions: Compound concentration 1.0 uM
[24] = target: Alpha-1A adrenergic receptor (Homo sapiens) (UniProt P35348); assay: Inhibition of Adrenergic alpha1A at compound concentration of 10.0 uM in the Eurofins-Panlabs radioligand binding assay (Eurofins_assay_203110); design: ligand concentration 0.25 nM; conditions: Rattus norvegicus; Compound concentration 10.0 uM
[25] = target: Tyrosine-protein kinase ITK/TSK (Homo sapiens) (UniProt Q08881); assay: Itk(h) Millipore kinase panel; conditions: Compound concentration 1.0 uM
[26] = target: Serine/threonine-protein kinase Chk2 (Homo sapiens) (UniProt O96017); assay: CHK2(h) Millipore kinase panel; conditions: Compound concentration 1.0 uM
[27] = target: Tyrosine-protein kinase Lck (Homo sapiens) (UniProt P06239); assay: Lck(h) activated Millipore kinase panel; conditions: Compound concentration 1.0 uM
[28] = target: Ribosomal protein S6 kinase beta-1 (Homo sapiens) (UniProt P23443); assay: p70S6K(h) Millipore kinase panel; conditions: Compound concentration 1.0 uM
[29] = target: Serine/threonine-protein kinase 35 (Homo sapiens) (UniProt Q8TDR2); assay: CLIK1(h) Millipore kinase panel; conditions: Compound concentration 1.0 uM
[30] = target: Serine/threonine-protein kinase TAO3 (Homo sapiens) (UniProt Q9H2K8); assay: TAO3(h) Millipore kinase panel; conditions: Compound concentration 1.0 uM
[31] = target: Rhodopsin kinase GRK7 (Homo sapiens) (UniProt Q8WTQ7); assay: GRK7(h) Millipore kinase panel; conditions: Compound concentration 1.0 uM
[32] = target: Histamine H4 receptor (Homo sapiens) (UniProt Q9H3N8); conditions: Compound concentration 10.0 uM
[33] = target: Serine/threonine-protein kinase NIM1 (Homo sapiens) (UniProt Q8IY84); assay: NIM1(h) Millipore kinase panel; conditions: Compound concentration 1.0 uM
[34] = target: GABA-A receptor; anion channel; assay: GPCRScan assay: inhibition of GABAA/BZP; type: protein-complex assay, Rattus norvegicus; design: radioligand conc. used [nm] 0.6 – 4.0, parental cells brain tissue
[35] = target: Inhibitor of nuclear factor kappa-B kinase subunit beta (Homo sapiens) (UniProt O14920); assay: IKKbeta(h) Millipore kinase panel; conditions: Compound concentration 1.0 uM
[36] = target: Phosphatidylinositol 4-phosphate 5-kinase type-1 gamma (Homo sapiens) (UniProt O60331); assay: PIP5K1g(h) Millipore kinase panel; conditions: Compound concentration 1.0 uM
[37] = target: Protein kinase C beta type (Homo sapiens) (UniProt P05771); assay: PKCbetaI(h) Millipore kinase panel; conditions: Compound concentration 1.0 uM
[38] = target: Tyrosine-protein kinase Yes (Homo sapiens) (UniProt P07947); assay: Yes(h) Millipore kinase panel; conditions: Compound concentration 1.0 uM
[39] = target: Serine/threonine-protein kinase SIK1 (Homo sapiens) (UniProt P57059); assay: SIK(h) Millipore kinase panel; conditions: Compound concentration 1.0 uM
[40] = target: Serine/threonine-protein kinase LATS2 (Homo sapiens) (UniProt Q9NRM7); assay: LATS2(h) Millipore kinase panel; conditions: Compound concentration 1.0 uM

Phosphatidylinositol 3-kinase C2 domain-containing subunit gamma (Homo sapiens), sequence (O75747 whole entry, the tested form may be a part): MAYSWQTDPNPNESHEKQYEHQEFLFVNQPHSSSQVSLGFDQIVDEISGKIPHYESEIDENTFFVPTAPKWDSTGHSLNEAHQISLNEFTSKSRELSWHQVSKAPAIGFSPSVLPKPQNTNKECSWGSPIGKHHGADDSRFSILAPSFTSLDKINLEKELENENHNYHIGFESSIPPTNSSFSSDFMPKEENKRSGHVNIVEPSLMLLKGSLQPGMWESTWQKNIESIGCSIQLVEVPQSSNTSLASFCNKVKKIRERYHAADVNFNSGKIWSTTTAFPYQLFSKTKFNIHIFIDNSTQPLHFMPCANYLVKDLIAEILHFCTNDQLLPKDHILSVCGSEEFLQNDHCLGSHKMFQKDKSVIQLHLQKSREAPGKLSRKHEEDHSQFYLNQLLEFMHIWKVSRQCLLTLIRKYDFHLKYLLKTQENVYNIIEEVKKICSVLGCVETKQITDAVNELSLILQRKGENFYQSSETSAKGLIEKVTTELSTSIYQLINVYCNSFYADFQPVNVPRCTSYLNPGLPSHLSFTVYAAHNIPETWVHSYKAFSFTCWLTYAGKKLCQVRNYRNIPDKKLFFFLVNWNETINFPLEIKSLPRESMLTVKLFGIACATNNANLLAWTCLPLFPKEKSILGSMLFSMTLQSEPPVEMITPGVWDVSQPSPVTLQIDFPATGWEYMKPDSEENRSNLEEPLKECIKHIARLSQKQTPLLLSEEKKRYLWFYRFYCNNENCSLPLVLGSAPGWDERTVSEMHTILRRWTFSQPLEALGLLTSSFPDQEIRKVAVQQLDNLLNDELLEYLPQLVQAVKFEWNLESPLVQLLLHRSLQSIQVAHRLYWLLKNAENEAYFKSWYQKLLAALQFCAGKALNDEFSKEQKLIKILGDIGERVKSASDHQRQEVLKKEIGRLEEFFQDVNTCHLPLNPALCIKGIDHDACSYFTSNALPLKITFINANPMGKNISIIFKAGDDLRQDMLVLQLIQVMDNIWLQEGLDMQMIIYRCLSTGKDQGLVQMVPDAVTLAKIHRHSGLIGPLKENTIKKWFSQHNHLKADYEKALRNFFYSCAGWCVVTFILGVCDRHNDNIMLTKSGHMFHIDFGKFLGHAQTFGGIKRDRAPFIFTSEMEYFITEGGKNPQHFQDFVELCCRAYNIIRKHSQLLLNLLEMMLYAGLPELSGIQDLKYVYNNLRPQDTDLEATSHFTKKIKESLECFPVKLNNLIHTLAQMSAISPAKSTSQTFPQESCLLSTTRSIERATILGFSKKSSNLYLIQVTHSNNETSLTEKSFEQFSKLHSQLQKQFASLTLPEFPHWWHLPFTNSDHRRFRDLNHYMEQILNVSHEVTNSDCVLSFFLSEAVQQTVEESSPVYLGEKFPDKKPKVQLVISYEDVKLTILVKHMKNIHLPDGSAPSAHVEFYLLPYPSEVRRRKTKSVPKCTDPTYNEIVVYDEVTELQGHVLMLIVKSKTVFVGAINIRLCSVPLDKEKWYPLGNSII
Activin receptor type-1B (Homo sapiens), sequence (P36896 whole entry): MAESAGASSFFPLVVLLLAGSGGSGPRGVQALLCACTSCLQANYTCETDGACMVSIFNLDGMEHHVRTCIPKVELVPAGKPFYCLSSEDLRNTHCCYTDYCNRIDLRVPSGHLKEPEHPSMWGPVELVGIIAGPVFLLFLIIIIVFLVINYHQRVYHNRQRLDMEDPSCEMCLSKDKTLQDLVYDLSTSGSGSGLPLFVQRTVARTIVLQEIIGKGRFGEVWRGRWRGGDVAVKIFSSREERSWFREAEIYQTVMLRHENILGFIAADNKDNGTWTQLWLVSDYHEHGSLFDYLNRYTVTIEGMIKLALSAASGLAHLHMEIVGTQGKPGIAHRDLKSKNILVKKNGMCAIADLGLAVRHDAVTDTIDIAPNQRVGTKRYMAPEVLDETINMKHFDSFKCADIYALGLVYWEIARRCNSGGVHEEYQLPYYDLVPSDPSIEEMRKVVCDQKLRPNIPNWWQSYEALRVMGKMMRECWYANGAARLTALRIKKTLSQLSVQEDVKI
Tyrosine-protein kinase Lck (Homo sapiens), sequence (P06239 2-509 limits assumed): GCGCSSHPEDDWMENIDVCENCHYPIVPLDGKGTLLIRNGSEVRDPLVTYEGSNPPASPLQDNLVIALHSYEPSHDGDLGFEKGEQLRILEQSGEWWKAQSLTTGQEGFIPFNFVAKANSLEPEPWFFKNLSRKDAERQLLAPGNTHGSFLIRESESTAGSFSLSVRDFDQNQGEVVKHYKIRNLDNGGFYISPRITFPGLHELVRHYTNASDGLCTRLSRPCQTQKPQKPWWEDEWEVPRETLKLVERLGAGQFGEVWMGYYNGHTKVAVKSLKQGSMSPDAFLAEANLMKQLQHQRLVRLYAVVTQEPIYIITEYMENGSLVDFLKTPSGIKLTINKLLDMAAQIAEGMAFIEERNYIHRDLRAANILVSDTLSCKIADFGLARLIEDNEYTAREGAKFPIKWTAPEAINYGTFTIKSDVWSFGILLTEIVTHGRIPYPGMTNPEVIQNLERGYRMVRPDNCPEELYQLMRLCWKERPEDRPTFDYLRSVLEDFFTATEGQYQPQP
Vascular endothelial growth factor receptor 2 (Homo sapiens), sequence (P35968 whole entry): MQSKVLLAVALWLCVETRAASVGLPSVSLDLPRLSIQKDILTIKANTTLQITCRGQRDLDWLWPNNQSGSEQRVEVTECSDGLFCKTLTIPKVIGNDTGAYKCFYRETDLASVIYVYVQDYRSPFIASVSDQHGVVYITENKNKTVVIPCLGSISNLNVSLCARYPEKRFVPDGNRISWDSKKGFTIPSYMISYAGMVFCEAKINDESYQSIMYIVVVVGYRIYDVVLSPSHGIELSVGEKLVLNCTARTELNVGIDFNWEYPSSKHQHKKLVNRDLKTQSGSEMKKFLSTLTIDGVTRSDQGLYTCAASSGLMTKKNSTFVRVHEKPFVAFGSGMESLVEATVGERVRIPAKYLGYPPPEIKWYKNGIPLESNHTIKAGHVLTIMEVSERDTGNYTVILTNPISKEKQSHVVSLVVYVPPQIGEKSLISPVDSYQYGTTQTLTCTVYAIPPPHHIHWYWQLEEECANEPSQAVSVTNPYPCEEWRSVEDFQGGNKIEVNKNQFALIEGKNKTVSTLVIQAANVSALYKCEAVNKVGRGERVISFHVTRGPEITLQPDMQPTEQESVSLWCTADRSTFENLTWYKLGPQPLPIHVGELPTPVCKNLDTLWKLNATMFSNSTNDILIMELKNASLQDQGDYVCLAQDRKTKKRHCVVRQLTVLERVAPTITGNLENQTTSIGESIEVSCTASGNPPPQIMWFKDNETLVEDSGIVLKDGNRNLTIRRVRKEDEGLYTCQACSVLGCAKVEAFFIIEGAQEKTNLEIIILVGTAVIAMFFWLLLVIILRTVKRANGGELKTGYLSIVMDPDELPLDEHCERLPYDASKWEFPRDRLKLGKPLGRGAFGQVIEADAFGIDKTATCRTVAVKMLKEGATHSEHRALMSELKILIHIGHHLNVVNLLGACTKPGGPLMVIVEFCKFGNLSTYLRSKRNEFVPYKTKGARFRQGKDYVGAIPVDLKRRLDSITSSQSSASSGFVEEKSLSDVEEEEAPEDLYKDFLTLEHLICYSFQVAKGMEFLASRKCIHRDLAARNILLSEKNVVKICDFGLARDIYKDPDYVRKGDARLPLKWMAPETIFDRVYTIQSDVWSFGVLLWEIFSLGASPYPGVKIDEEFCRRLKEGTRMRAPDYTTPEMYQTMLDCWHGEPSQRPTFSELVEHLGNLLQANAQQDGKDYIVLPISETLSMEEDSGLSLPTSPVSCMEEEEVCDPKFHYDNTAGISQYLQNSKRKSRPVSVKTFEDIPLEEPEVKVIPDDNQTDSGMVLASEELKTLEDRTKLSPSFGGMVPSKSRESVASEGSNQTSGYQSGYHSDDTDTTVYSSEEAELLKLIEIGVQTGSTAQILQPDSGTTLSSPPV
Ephrin type-B receptor 2 (Homo sapiens), sequence (P29323 whole entry): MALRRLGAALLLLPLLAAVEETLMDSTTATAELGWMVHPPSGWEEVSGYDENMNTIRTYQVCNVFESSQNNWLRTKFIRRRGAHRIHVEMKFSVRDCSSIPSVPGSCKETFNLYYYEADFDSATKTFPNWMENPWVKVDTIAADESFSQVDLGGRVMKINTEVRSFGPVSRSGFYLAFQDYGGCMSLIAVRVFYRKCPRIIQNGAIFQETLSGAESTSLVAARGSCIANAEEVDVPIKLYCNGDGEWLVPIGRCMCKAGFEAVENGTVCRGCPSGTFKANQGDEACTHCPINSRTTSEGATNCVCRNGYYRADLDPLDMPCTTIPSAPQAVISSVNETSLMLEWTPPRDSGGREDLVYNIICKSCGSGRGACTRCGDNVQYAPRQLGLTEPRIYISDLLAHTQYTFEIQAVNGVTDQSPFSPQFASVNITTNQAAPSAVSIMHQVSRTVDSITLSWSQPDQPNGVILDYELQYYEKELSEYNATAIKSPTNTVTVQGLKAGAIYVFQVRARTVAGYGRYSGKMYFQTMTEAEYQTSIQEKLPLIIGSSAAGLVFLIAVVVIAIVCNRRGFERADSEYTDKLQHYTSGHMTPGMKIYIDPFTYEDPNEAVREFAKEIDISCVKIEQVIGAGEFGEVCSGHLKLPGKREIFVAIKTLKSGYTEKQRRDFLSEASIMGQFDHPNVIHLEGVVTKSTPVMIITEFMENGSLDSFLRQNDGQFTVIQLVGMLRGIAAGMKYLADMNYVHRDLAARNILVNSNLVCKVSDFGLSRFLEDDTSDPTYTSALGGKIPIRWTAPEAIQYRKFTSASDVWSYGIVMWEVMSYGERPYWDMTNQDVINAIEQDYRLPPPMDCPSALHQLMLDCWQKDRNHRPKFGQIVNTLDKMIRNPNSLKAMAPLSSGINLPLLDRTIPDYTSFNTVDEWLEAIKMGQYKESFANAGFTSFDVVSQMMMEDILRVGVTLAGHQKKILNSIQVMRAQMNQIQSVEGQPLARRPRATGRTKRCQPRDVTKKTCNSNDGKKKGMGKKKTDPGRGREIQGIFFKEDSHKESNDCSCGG

CC[C@@H](Nc1c(C#N)c(-c2ccc(-c3cccc(C)c3F)cc2)nc2cnccc12)C(=O)O [BAY-091]
inactive: inhibition [1] 5.05% | inhibition [2] 5.32% | inhibition [3] -3% | inhibition [4] -3.68% | inhibition [5] 1.4% | inhibition [6] 0.08% | inhibition [7] 10% | inhibition [8] -3.58% | inhibition [9] 7.33% | inhibition [10] 8.22% | inhibition [11] 3% | inhibition [12] 1.17% | inhibition [13] -6.72% | inhibition [14] 25.4% | inhibition [16] 14.4% | inhibition [17] 9.33% | inhibition [18] -5.6% | inhibition [19] 14.2% | inhibition [20] 10% | inhibition [21] 50.1% | inhibition [22] 4.68% | inhibition [23] 11.1% | inhibition [24] -4% | inhibition [25] 9.18% | inhibition [26] 5.38% | inhibition [27] -3.67% | inhibition [28] 4.3% | inhibition [29] 9.55% | inhibition [30] 2.25% | inhibition [31] 2.75% | inhibition [32] 15.8% | inhibition [33] 12% | inhibition [35] 2.85% | inhibition [36] 1.51% | inhibition [37] 16.5% | inhibition [38] -3.76% | inhibition [39] 13.4% | inhibition [40] 1.83%
active: inhibition [15] 98%
6.83 µM: Ki [34]
